Paper PMC5881471, “CDK2 inhibitors as candidate therapeutics for cisplatin- and noise-induced hearing loss” (The Journal of Experimental Medicine, 2018)

Biological target: CDK2 (Mus musculus, UniProt P97377)
Assay: immunoprecipitated CDK2 kinase assay, […]histone H1 substrate; cisplatin-treated cells ([…] from untreated cells)
Assay type: biochemical
Conditions: not given

Row | Structure (SMILES) | IC50
1 | O=C1Cc2c([nH]c3ccc(Br)cc23)-c2ccccc2N1 [kenpaullone] | 1.7 ± 0.9 µM

System: not listed separately
Assay: in vitro
Set-up: CellTiter-Glo cell viability, compound alone
Conditions: mouse, hei-oc1 cells; compound alone; read-out: LD50 (μM) in HEI cells
Excerpt: For this screen, caspase-3 cleavage was chosen as the endpoint indicating cisplatin-induced cell death, as it allowed the inhibition of cell death to be monitored at the level of any intracellular molecular target upstream of caspase-3 cleavage in the HEI-OC1 cell line ([Kalinec et al., 2003]; [Kim et al., 2010]). […] This screen has been described in detail elsewhere ([Teitz et al., 2016]). Assays were first optimized at the bench. Optimized aspects included the number of cells to be plated (1,600 cells/well), the cisplatin concentration (50 µM, based on the dose–response curve), the incubation time (22 h at 33°C in 10% CO2), and the concentration of pifithrin-α (17 µM). The Caspase-Glo 3/7 assay (Promega), which enables the measurement of light emitted as the result of caspase cleavage and is suitable for HTS, was used. The linearity of the Caspase-Glo 3/7 assay was validated, and it was verified that 0.5% DMSO had no effect on the cell death kinetics ([Hall et al., 2014]). Compound toxicity was tested by cell viability assay CellTiter-Glo (Promega) with compound alone. The Caspase-Glo 3/7 assay was then tested for reproducibility in the St. Jude robotic systems in 384-well plates (white, solid-bottom, tissue culture–treated, polystyrene plates; Corning). By using a pin tool, test compounds dissolved in DMSO were added to the screen to a final concentration of 8 µM, and cisplatin solution in PBS was added 2 min later to each well to a final concentration of 50 µM (in <0.5% DMSO; Fig. S1 A). The cells were incubated with the test compounds and cisplatin for 22 h at 33°C in 10% CO2, with the medium being as previously described ([Kalinec et al., 2003]); no γ IFN was added to slow the cells’ growth rate and to mimic as closely as possible the conditions of postmitotic, nondividing sensory epithelial (organ of Corti) cells. The 384-well plates were shaken and centrifuged after compound addition to enhance the reprod  Figure 1. […] (A) Screening of a bioactive compound library of 4,385 unique compounds, including 845 FDA-approved drugs, in HEI-OC1 cells. Cells treated with 50 µM cisplatin (red dots) were assigned 100% caspase-3/7 activity. Cells not treated with cisplatin, i.e., those grown in medium only (black dots) were assigned 0% caspase-3/7 activity. Each compound was added to a final concentration of 8 µM in the presence of 50 µM cisplatin (cyan dots). The cell-based screen mean Z′ was 0.75, the signal window was 12, and the signal fold change was 4.9. […] The caspase-3/7 IC50 activity and structure are indicated for each compound. Error bars: SEM. […] Phalloidin labels the HCs. (I–K) OHC survival (percentage; mean ± SEM) after treatment with various concentrations of compounds and/or cisplatin (CIS). The number of cochlear explants analyzed is indicated in each bar. *, P < 0.05 and **, P < 0.01 by one-way ANOVA followed by a Bonferroni comparison. We identified 177 hits that reduced cisplatin-induced caspase-3/7 activity by 60% or more. These compounds were further validated and characterized by dose-responsive analysis for potency and toxicity in HEI-OC1 cells; toxicity was assessed by a cell viability assay (CellTiter-Glo) with the test compounds alone (Fig. 1, B–D; and Fig. S1, E–K). The top 10 hits in this screen (with IC50 values in the HEI-OC1 cells of 0.04–6.2 µM) and their protective properties, as investigated in this study, are summarized in Table S1. The FDA has approved three of the compounds (leflunomide, [compound left out], and olsalazine sodium) for treating other medical conditions.

Row | Structure (SMILES) | CC50 at 22 h
2 | CCCCCC[C@H]1C(=O)O[C@H](C)[C@H](NC(=O)c2cccc(NC=O)c2O)C(=O)O[C@@H](C)[C@@H]1OC(=O)CC(C)C [Antimycin A] | > 10 µM
3 | NS(=O)(=O)c1ccc(N=Nc2c(O)[nH]c3ccc(Br)cc23)cc1 [CDK2 inhibitor II] | > 40 µM
4 | O=c1cc(CN2CCOCC2)occ1OCCCCCSc1ccnc2cc(C(F)(F)F)ccc12 [EHT1864] | > 20 µM
5 | Cc1oncc1C(=O)Nc1ccc(C(F)(F)F)cc1 [Leflunomide] | > 40 µM
6 | CC[C@H](CO)Nc1nc(NCc2ccccc2O)c2ncn(C(C)C)c2n1 [Olomoucine II] | > 40 µM
7 | O=C(O)c1cc(/N=N/c2ccc(O)c(C(=O)O)c2)ccc1O [Olsalazine sodium] | > 40 µM
8 | CCOc1cc2ncc(C#N)c(Nc3ccc(F)c(Cl)c3)c2cc1NC(=O)/C=C/CN(C)C [Pelitinib] | > 40 µM
9 | O=C1Cc2c([nH]c3ccc(Br)cc23)-c2ccccc2N1 [kenpaullone] | > 40 µM
